Among the data in patent US20160311791A1, “NOVEL TRICYCLIC CALCIUM SENSING RECEPTOR ANTOGONISTS FOR THE TREATMENT OF OSTEOPOSOSIS” (MERCK SHARP & DOHME CORP., priority 2013, published 2016) are IC50 values, retold here.

The assay concerns the target T1, human CaSR (Homo sapiens, UniProt P41180).
T1 sequence (P41180 20-1078): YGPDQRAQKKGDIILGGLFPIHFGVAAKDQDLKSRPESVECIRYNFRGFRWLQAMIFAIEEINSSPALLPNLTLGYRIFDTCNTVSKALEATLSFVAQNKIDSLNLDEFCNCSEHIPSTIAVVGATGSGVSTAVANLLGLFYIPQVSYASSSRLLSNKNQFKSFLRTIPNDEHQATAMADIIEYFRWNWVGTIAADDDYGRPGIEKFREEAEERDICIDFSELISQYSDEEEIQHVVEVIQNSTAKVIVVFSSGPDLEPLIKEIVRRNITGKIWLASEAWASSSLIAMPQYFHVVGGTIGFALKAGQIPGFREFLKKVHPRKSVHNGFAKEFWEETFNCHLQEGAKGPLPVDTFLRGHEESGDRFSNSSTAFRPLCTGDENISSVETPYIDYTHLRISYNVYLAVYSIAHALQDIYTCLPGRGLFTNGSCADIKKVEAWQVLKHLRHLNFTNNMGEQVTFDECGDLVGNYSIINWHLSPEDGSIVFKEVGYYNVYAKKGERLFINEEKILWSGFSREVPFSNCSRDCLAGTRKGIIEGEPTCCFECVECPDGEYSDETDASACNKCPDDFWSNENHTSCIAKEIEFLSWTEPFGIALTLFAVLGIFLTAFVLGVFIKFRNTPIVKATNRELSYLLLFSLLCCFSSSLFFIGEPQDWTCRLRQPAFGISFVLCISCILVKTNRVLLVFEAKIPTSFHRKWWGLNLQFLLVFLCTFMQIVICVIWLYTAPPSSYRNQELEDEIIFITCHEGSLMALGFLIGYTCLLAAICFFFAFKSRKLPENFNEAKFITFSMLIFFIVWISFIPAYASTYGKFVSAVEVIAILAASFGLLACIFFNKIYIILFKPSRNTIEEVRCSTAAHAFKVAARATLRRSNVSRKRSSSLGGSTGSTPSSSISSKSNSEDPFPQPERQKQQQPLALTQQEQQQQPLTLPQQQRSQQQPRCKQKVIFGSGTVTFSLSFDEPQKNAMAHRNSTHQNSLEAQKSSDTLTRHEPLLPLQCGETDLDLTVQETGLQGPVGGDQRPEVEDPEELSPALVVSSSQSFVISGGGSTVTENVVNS
The assay can be described thus: CaSR FLIPR assay (calcilytic activity). Format: cell-based. More on the design: expressed in transfected cells. To be noted: HEK293 cells stably expressing human recombinant CaSR; 1 mM CaCl2 agonist; Tables 1-24; read-out: FLIPR ASSAY IC50. The procedure: Procedures for CaSR FLIPR Assay
Calcilytic activity of the compound is measured in HEK293 cells stably expressing human recombinant CaSR (HEK-CaSR) using a FLIPR^TETRA device (Molecular Devices, Sunnyvale, Calif.) according to the manufacturer's directions. […] On the day of the assay, one vial of FLIPR Calcium 4 Assay Kit reagent Component A was equilibrated to room temperature. The content of the Component A vial was diluted by adding 10 ml dilution buffer (2×loading dye). The sample was mixed by vortexing (1-2 minutes) until the contents of the vial dissolved. The Component A vial mixture was diluted with 10 ml dilution buffer. Media was aspirated from the cells and 80 μl of loading buffer was added to each well. Plates were incubated for 1 hour at 37° C. and then placed at room temperature for 10 minutes. A two-stage method of generating 10-point serial dilutions was used. Compound was serially diluted in 100% DMSO (10 point, 3-fold dilution of each compound from 2 mM in 100% DMSO). 3 μl of serially diluted compound was transferred into a second assay microplate that contained 97 μl of TETRA dilution buffer (20 mM HEPES pH7.4, 1×HBSS without Ca and Mg, 0.4 mM CaCl2, 0.4 mM MgSO4, 0.5 mM MgCl2) to create the intermediate dilution plate. After reading the base line, the compounds in 0.5% DMSO in dilution buffer were added to their respective wells as 20 μl aliquots at 6×the final drug concentration. The fluorescence signals were then read. Subsequently, 20 μl of 3.6 mM of CaCl2 agonist (1 mM final concentration) was added to each well. For background, 20 μl of TETRA dilution buffer was added instead. The protocol consisted of a pre-addition read of 10 frames (10×1 frame/sec), a post 1st addition read of 100 frames (60×1 frame/sec, 40×1 frame/3 sec), pause 3 min, a post 2nd addition read of 100 frames (60×1 frame/sec, 40×1 frame/3 sec) on a FLIPR^TETRA Plate Reader.

One may read the IC50 as the concentration that inhibits the measured activity by half. Turning to `Cc1ccc([C@@H](C)OC[C@H](O)CNC(C)(C)Cc2ccc3c(c2)OCCO3)c2c1O[C@@H]1[C@@H](C(=O)O)[C@H]21` [Example 8-13], the IC50 was found to be 22 nM. Take `Cc1ccc(CC(C)(C)NC[C@@H](O)CO[C@H](C)c2cccc3c2[C@@H]2[C@H](O3)[C@H]2C(=O)O)cc1C` [Example 5-5]: the half-maximal inhibitory concentration (IC50) came out at 26 nM.

Turning to `CSc1ccc(CC(C)(C)NC[C@@H](O)CO[C@H](C)c2cccc3c2O[C@@H]2[C@@H](C(=O)O)[C@H]32)cc1Cl` [Example 1-21], the IC50 came out at 86 nM.

Turning to `C[C@@H](OC[C@H](O)CNC(C)(C)Cc1ccc2sccc2c1)c1cccc2c1O[C@@H]1[C@@H](C(=O)O)[C@H]21` [Example 1-9], the half-inhibitory concentration (IC50) is 27 nM. With `C[C@@H](OC[C@H](O)CNC(C)(C)Cc1ccc(Cl)c(F)c1)c1cccc2c1O[C@@H]1[C@@H](C(=O)O)[C@H]21` [Example 1-2], the IC50 worked out at 148 nM. Turning to `Cc1ccc(CC(C)(C)NC[C@@H](O)CO[C@H](C)c2cccc3c2O[C@@H]2[C@@H](C(=O)O)[C@H]32)c(F)c1` [Example 1-11], the concentration for half-maximal inhibition (IC50) was found to be 140 nM.

Turning to `CSc1ccc(CC(C)(C)NC[C@@H](O)CO[C@H](C)c2cccc3c2[C@@H]2[C@H](C3)[C@H]2C(=O)O)cc1F` [Example 13-5], the IC50 came out at 130 nM. Regarding `Cc1ccc([C@@H](C)OC[C@H](O)CNC(C)(C)CCCc2ccccc2)c2c1O[C@@H]1[C@@H](C(=O)O)[C@H]21` [Example 8-16], the IC50 is 29 nM. Take `C[C@@H](OC[C@H](O)CNC(C)(C)Cc1ccc2ccccc2c1)c1c(Cl)ccc2c1[C@@H]1[C@H](O2)[C@H]1C(=O)O` [Example 15-1]: the concentration for half-maximal inhibition (IC50) was found to be 17 nM. For the compound `C[C@@H](OC[C@H](O)CNC(C)(C)Cc1ccc(Cl)c(F)c1)c1cccc2c1O[C@H]1[C@H](C(=O)O)[C@@H]21` [Example 2-2], the concentration for half-maximal inhibition (IC50) worked out at 148 nM. Take `CCOC(=O)[C@@H]1[C@H]2Oc3cccc([C@@H](C)OC[C@H](O)CNC(C)(C)Cc4ccc5ccccc5c4)c3[C@H]21` [Example 5-20]: the half-inhibitory concentration (IC50) was determined as 130 nM.

Take `C[C@@H](OC[C@H](O)CNC(C)(C)Cc1ccc2c(c1)CCC2)c1cccc2c1[C@@H]1[C@H](C2)[C@H]1C(=O)O` [Example 13-3]: the IC50 is 88 nM. Under `C[C@@H](OC[C@H](O)CNC(C)(C)C(=O)N1CCc2ccccc2C1)c1cccc2c1O[C@H]1[C@H](C(=O)O)[C@@H]21` [Example 2-7] stands ≥ 10000 nM.

In the case of `CSc1ccc(CC(C)(C)NC[C@@H](O)CO[C@H](C)c2cccc3c2[C@@H]2[C@H](O3)[C@H]2C(=O)O)cc1C` [Example 5-19], the IC50 was determined as 97 nM.

`CSc1ccc(CC(C)(C)NC[C@@H](O)CO[C@H](C)c2c(Cl)cc(C)c3c2[C@@H]2[C@H](O3)[C@H]2C(=O)O)cc1F` [Example 16-6]: the IC50 was 17 nM. `Cc1ccc(CC(C)(C)NC[C@@H](O)CO[C@H](C)c2ccc(C)c3c2[C@H]2[C@@H](O3)[C@@H]2C(=O)O)cc1F` [Example 9-4]: the IC50 came out at 68 nM.

Regarding `Cc1ccc([C@@H](C)OC[C@H](O)CNC(C)(C)Cc2cc3ccccc3s2)c2c1O[C@@H]1[C@@H](C(=O)O)[C@H]21` [Example 8-6], the IC50 turned out to be 96 nM. `CSc1ccc(CC(C)(C)NC[C@@H](O)CO[C@H](C)c2cccc3c2[C@@H]2[C@H](O3)[C@H]2C(=O)O)cc1Cl` [Example 5-18]: the IC50 was 53 nM. As to `C[C@@H](OC[C@H](O)CNC(C)(C)CC1Cc2ccccc2C1)c1cccc2c1O[C@@H]1[C@@H](C(=O)O)[C@H]21` [Example 1-3], the IC50 is 40 nM. As for `Cc1ccc([C@@H](C)OC[C@H](O)CNC(C)(C)Cc2ccc3c(c2)OCO3)c2c1O[C@@H]1[C@@H](C(=O)O)[C@H]21` [Example 8-11], the IC50 was 50 nM.

In the case of `CSc1ccc(CC(C)(C)NC[C@@H](O)CO[C@H](C)c2ccc(C)c3c2C2[C@H](O3)[C@H]2C(=O)O)cc1` (stereo partly shown) [Example 8-23], the half-maximal inhibitory concentration (IC50) came out at 40 nM. With `C[C@@H](OC[C@H](O)CNC(C)(C)CCSc1ccccc1)c1cccc2c1O[C@@H]1[C@@H](C(=O)O)[C@H]21` [Example 1-20], the 50% inhibitory concentration (IC50) worked out at 330 nM.
